Experimental data as given in US4886822A, “Substituted anilide compounds which are useful in the treatment of arrhythmia” (Kowa Company, Ltd., priority 1987, dated 1989).
Structures can show the parent of a compound that is named as a salt.

Experiments:
[1] = cited from earlier work; for side effects: known/reported side effects (background)
[2] = test system: Chloroform-Induced Arrhythmia; assay: Activity on Chloroform-Induced Arrhythmia (ventricular fibrillation); format: in vivo, ICR-strain mice; settings: Mus musculus, po, 30 mg/kg orally; ICR mice, 10 per group; chloroform vapor; read-out: Percent VF inhibition
Protocol: Activity on Chloroform-Induced Arrhythmia: ICR-strain mice having a body weight of 20 to 35 g (10 per group) were used, and the test compound was administered orally in a dose of 30 mg/kg. The mice were put in a 1-liter beaker, and observed for 20 minutes for their symptoms or conditions. Then, they were placed in a vessel saturated with a vapor of chloroform, and the time which elapsed until the animals ceased to breathe was measured. After the stopping of the breathing, the mice were taken out from the vessel and their cardiograms (second induction) were recorded by a memory oscilloscope (VC-10, made by Nippon Kodensha) and a linear corder (WTR331 made by Watanabe Measuring Instrument Co., Ltd.). The occurrence of ventricular fibrillation (VF) was evaluated by the cardiograms. The results are shown in Table 1 by percent VF inhibition.

[3] = test system: Ouabain-Induced Arrhythmia; assay: Activity on Ouabain-Induced Arrhythmia; format: in vivo, Male hybrid adult dogs; settings: Canis lupus familiaris, iv; continuous injection into femoral vein 0.5 mg/kg/min; anaesthetized dogs; n=3 (range); read-out: Dose required complete inhibition
Protocol: Activity on Ouabain-Induced Arrhythmia: Male hybrid adult dogs weighing 9 to 17 kg were anaesthetized, and fixed in the supine position under artificial respiration. The blood pressures, heart rates and second induced cardiograms (using RA-101 made by San-ei Measuring Instrument Co., Ltd.) of the animals were measured. Ouabain was first intravenously administered in a dose of 40 μg/kg, and 30 minutes later in a dose of 20 μg/kg. Furthermore, until continuous ventricular arrhythmia was obtained, 10 μg/kg of ouabain was cumulatively administered at intervals of 15 minutes. The ventricular automaticity was examined substantially in accordance with the method of Roberts et al. (J. Pharmacol. Exp. Ther. 117, 374-384, 1956). The peripheral end of the right cervical vagus nerve was stimulated with short waves (0.4-1.9 V, 1 millisecond, 20 Hz) using an electrical stimulating device (MSE-3R made by Nippon Kodensha) for 10 seconds. […] After the administration, the vagus nerve was stimulated every minute, and the inhibition of extrasystole was observed. At the same time, the presence or absence of restoration of the cardiogram to a normal rhythm was observed using the inversion of R waves as an index in ventricular arrhythmia. The anti-arrhythmic action was evaluated such that when the normal sinus rhythm was restored and extrasystole was not induced by stimulation of the vagus nerve, the result was rated as complete inhibition.

SMILES | inhibition in vivo at 30 mg/kg [2] [%] | further results
CC(C)N(CCC(C(N)=O)(c1ccccc1)c1ccccn1)C(C)C (stereo not drawn) [disopyramide] |  | action on the myocardium ([1]; background): inhibiting action on the myocardium; side effects [1]: thirst, ischurin, constipation, dizziness and vomiting
COc1ccc(-c2nc3cccnc3[nH]2)c(NC(=O)CC(C)N)c1 (stereo not drawn) [Example 46] | 80 | 
C=CCOc1ccc(-c2ccccn2)cc1NC(=O)CC(C)N (stereo not drawn) [Example 30, 2'-Allyloxy-3-amino-5'-(2-pyridyl)butyranilide dihydrochloride] | 70 | 
Cc1ccc(-c2ccccn2)c(NC(=O)CC(C)N)c1 (stereo not drawn) [Example 8, 3-Amino-5'-methyl-2'-(2-pyridyl)butyranilide] | 90 | 
COc1ccc(-c2ncc[nH]2)c(NC(=O)CC(C)N)c1 (stereo not drawn) [Example 45, 3-Amino-2'-(2-imidazolyl)-5'-methoxybutyranilide] | 80 | 
CC(N)CC(=O)Nc1c(OCC(F)(F)F)cccc1-c1cccnc1 (stereo not drawn) [Example 23, 3-Amino-2'-(3-pyridyl)-6'-(2,2,2-trifluoroethoxy)butyranilide] | 70 | 
CC(N)CC(=O)Nc1cc(OCC(F)(F)F)ccc1-c1cccnc1 (stereo not drawn) [Example 20, 3-Amino-2'-(3-pyridyl)-5'-(2,2,2-trifluoroethoxy)butyranilide monohydrochloride] | 100 | 
CCOc1ccc(-c2cccnc2)c(NC(=O)CC(C)N)c1.Cl.Cl (stereo not drawn) [Example 33, 3-Amino-5'-ethoxy-2'-(3-pyridyl)butyranilide dihydrochloride] | 80 | ED100 [3]: 2 to 3 mg/kg
C=CCOc1ccc(-c2cccnc2)c(NC(=O)CC(C)N)c1 (stereo not drawn) [Example 28, 5'-Allyloxy-3-amino-2'-(3-pyridyl)butyranilide] | 70 | ED100 [3]: 1.5 to 2.8 mg/kg
COc1ccc(C(O)c2cccnc2)cc1NC(=O)CC(C)N (stereo not drawn) [Example 56, 3-Amino-5'-[hydroxy-(3-pyridyl)methyl]-2'-methoxybutyranilide hydrochloride] | 70 | 
COc1ccc(-c2ccccn2)c(NC(=O)CC(C)N)c1 (stereo not drawn) [Example 1, 3-Amino-5'-methoxy-2'-(2-pyridyl)butynanilide] | 80 | 
Cc1cccc(C)c1OCC(C)N (stereo not drawn) [mexiletine, reference compound] | 50 | ED100 [3]: 2 to 4.5 mg/kg; side effects [1]: side effects on the digestive system and the meuropsychotic system with a high frequency; activity on the central nervous system ([1]; reported (background)): has activity on the central nervous system
